PubChem BioAssay (NCI)
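Following 48 hours of exposure in 96-well plates, responses at five concentrations were used to interpolate endpoints linearly. GI50: concentration for 50% inhibition of growth. TGI: total growth inhibition.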

Legend:
Assay in all cases: DTP human tumour cell line panel, 48 h
[1] = tested on: 786-0 renal
[2] = tested on: A498 renal
[3] = tested on: A549 NSCLC
[4] = tested on: ACHN renal
[5] = tested on: CAKI-1 renal
[6] = tested on: CCRF-CEM leukemia
[7] = tested on: COLO 205 colon
[8] = tested on: DU-145 prostate
[9] = tested on: EKVX NSCLC
[10] = tested on: HCC-2998 colon
[11] = tested on: HCT-116 colon
[12] = tested on: HCT-15 colon
[13] = tested on: HL-60(TB) leukemia
[14] = tested on: HOP-62 NSCLC
[15] = tested on: HOP-92 NSCLC
[16] = tested on: HS 578T breast
[17] = tested on: HT29 colon
[18] = tested on: IGROV1 ovarian
[19] = tested on: K-562 leukemia
[20] = tested on: KM12 colon
[21] = tested on: LOX IMVI melanoma
[22] = tested on: M14 melanoma
[23] = tested on: MALME-3M melanoma
[24] = tested on: MCF7 breast
[25] = tested on: MDA-MB-231 breast
[26] = tested on: MDA-MB-435
[27] = tested on: MOLT-4 leukemia
[28] = tested on: NCI-H226 lung
[29] = tested on: NCI-H23 lung
[30] = tested on: NCI-H460 lung
[31] = tested on: NCI-H522 lung
[32] = tested on: NCI/ADR-RES ovarian
[33] = tested on: OVCAR-3 ovarian
[34] = tested on: OVCAR-4 ovarian
[35] = tested on: OVCAR-5 ovarian
[36] = tested on: OVCAR-8 ovarian
[37] = tested on: PC-3 prostate
[38] = tested on: RPMI-8226 leukemia
[39] = tested on: RXF 393 renal
[40] = tested on: SF-268 CNS
[41] = tested on: SF-295 CNS
[42] = tested on: SF-539 CNS
[43] = tested on: SK-MEL-2 melanoma
[44] = tested on: SK-MEL-28 melanoma
[45] = tested on: SK-MEL-5 melanoma
[46] = tested on: SK-OV-3 ovarian
[47] = tested on: SN12C renal
[48] = tested on: SNB-19 CNS
[49] = tested on: SNB-75 CNS
[50] = tested on: SR leukemia
[51] = tested on: SW-620 colon
[52] = tested on: T-47D breast
[53] = tested on: TK-10 renal
[54] = tested on: U251 CNS
[55] = tested on: UACC-257 melanoma
[56] = tested on: UACC-62 melanoma
[57] = tested on: UO-31 renal

**Q.** Which results are given for COc1cc(Cn2ccc3c2-c2oncc2CC3)cc(OC)c1?
**A.** GI50 [1]: 6.36 µM; TGI [1]: 37.1 µM; GI50 [2]: 1.16 µM; TGI [2]: 6.99 µM; GI50 [3]: 5.23 µM; TGI [3]: > 100 µM; GI50 [4]: 5.54 µM; TGI [4]: 97.9 µM; GI50 [5]: 2.79 µM; TGI [5]: 39.5 µM; GI50 [6]: 3.74 µM; TGI [6]: > 100 µM; GI50 [7]: 3.7 µM; TGI [7]: 17.3 µM; GI50 [8]: 3.99 µM; TGI [8]: > 100 µM; GI50 [9]: 4.3 µM; TGI [9]: 56.1 µM; GI50 [10]: 7.13 µM; TGI [10]: 90.1 µM; GI50 [11]: 3.49 µM; TGI [11]: 26.6 µM; GI50 [12]: 3.03 µM; TGI [12]: > 100 µM; GI50 [13]: 2.22 µM; TGI [13]: 8.94 µM; GI50 [14]: 4.4 µM; TGI [14]: > 100 µM; GI50 [15]: 4.25 µM; TGI [15]: 47 µM; GI50 [16]: 2.38 µM; TGI [16]: 12.2 µM; GI50 [17]: 3.17 µM; TGI [17]: > 100 µM; GI50 [18]: 7.44 µM; TGI [18]: > 100 µM; GI50 [19]: 0.594 µM; TGI [19]: > 100 µM; GI50 [20]: 2.02 µM; TGI [20]: 28.5 µM; GI50 [21]: 4.83 µM; TGI [21]: > 100 µM; GI50 [22]: 2.39 µM; TGI [22]: 9.45 µM; GI50 [23]: 4.25 µM; TGI [23]: 37.9 µM; GI50 [24]: 2.2 µM; TGI [24]: > 100 µM; GI50 [25]: 6.58 µM; TGI [25]: 81.4 µM; GI50 [26]: 0.369 µM; TGI [26]: 4.03 µM; GI50 [27]: 4.09 µM; TGI [27]: > 100 µM; GI50 [28]: 15.5 µM; TGI [28]: > 100 µM; GI50 [29]: 3.89 µM; TGI [29]: 52.9 µM; GI50 [30]: 3.11 µM; TGI [30]: 13.3 µM; GI50 [31]: 3.57 µM; TGI [31]: 40.4 µM; GI50 [32]: 1.95 µM; TGI [32]: 7.24 µM; GI50 [33]: 2.99 µM; TGI [33]: 9.79 µM; GI50 [34]: 16.4 µM; TGI [34]: > 100 µM; GI50 [35]: 10.1 µM; TGI [35]: > 100 µM; GI50 [36]: 4.81 µM; TGI [36]: 46.7 µM; GI50 [37]: 11 µM; TGI [37]: > 100 µM; GI50 [38]: 4.98 µM; TGI [38]: 50.3 µM; GI50 [39]: 5.2 µM; TGI [39]: 60 µM; GI50 [40]: 10.1 µM; TGI [40]: > 100 µM; GI50 [41]: 3.05 µM; TGI [41]: 28.8 µM; GI50 [42]: 2.8 µM; TGI [42]: 21.4 µM; GI50 [43]: 8.29 µM; TGI [43]: > 100 µM; GI50 [44]: 8.75 µM; TGI [44]: > 100 µM; GI50 [45]: 2.75 µM; TGI [45]: 10.4 µM; GI50 [46]: 4.79 µM; TGI [46]: > 100 µM; GI50 [47]: 6.99 µM; TGI [47]: > 100 µM; GI50 [48]: 5.89 µM; TGI [48]: > 100 µM; GI50 [49]: 1.9 µM; TGI [49]: 7.48 µM; GI50 [50]: 0.851 µM; TGI [50]: 31.1 µM; GI50 [51]: 2.18 µM; TGI [51]: > 100 µM; GI50 [52]: 3.69 µM; TGI [52]: 60.2 µM; GI50 [53]: 8.04 µM; TGI [53]: > 100 µM; GI50 [54]: 4.43 µM; TGI [54]: 69.3 µM; GI50 [55]: 6.72 µM; TGI [55]: 91.1 µM; GI50 [56]: 3.68 µM; TGI [56]: > 100 µM; GI50 [57]: 6.09 µM; TGI [57]: 41.6 µM
